Among the data in US7425557B2, “Inhibitors of glycogen synthase kinase 3” (Novartis Vaccines and Diagnostics, Inc., priority 1998, dated 2008) are IC50 values, retold here.

Chain of human GSK3β (P49841 whole entry): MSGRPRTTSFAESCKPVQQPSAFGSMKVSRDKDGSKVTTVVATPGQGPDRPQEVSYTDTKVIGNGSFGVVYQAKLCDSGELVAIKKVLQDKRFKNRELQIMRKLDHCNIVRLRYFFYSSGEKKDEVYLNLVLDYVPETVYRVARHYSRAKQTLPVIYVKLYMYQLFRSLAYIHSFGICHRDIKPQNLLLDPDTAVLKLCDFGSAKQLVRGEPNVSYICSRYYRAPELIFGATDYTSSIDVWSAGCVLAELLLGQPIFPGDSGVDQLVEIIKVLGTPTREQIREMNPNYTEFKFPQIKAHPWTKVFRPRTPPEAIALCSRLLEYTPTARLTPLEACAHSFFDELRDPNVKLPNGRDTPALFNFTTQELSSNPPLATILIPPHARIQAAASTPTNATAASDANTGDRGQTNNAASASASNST

This assay deals with human GSK3β (Homo sapiens, UniProt P49841). The assay is described as follows: Screening for GSK3 inhibitory activity using a cell-free assay. It is filed as biochemical. Particulars: read-out: IC50 with respect to GSK3. As for the experimental part:
This amount represents the amount of radiolabeled phosphate incorporated into the peptide substrate.
The captured radiolabeled peptide substrate can be quantitated in a scintillation counter using known methods. […] If an inhibitor is present during the reaction, GSK3 activity will be reduced, and a smaller quantity of radiolabeled phosphate will thus be incorporated into the peptide substrate.
Pyrimidine and pyridine compounds of the present invention were dissolved in DMSO, then tested for inhibition of human GSK3β (the nucleotide sequence for human GSK3β appears in GenBank under Accession No. L33801).
While the reaction was proceeding, streptavidin-coated Labsystems “Combiplate 8” capture plates (Labsystems, Helsinki, Finland) were blocked by incubating them with 300 μl/well of PBS containing 1% bovine serum albumin for at least one hour at room temperature. The blocking solution was then removed by aspiration, and the capture plates were filled with 100 ul/well of stopping reagent (50 μM ATP/20 mM EDTA).
When the three hour enzyme reaction was finished, triplicate 100 μl aliquots of each reaction mix were transferred to three wells containing stopping solution, one well on each of the three capture plates, and the well contents were mixed well. […] Finally, 200 μl of Microscint-20 scintillation fluid was added to each well of the plate. The plates were coated with plate sealers, then left on a shaker for 30 minutes. Each capture plate was counted in a Packard TopCount scintillation counter (Meridian, Conn.) and the results were plotted as a function of compound concentration.
Turning to `O=[N+]([O-])c1ccc(NCCNc2nccc(-c3cccc(O)c3)n2)nc1` [3-[2-({2-[(5-nitro-2-pyridyl)amino]ethyl}-amino)pyrimidin-4-yl]phenol], the IC50 was no more than 10 µM.
`N#Cc1cccc(-c2ccnc(NCCNc3ccc([N+](=O)[O-])cn3)n2)c1` [3-[2-({2-[(5-nitro-2-pyridyl)amino]ethyl}amino)pyrimidin-4-yl]benzenecarbonitrile]: the IC50 is no more than 10 µM.
For `N#Cc1ccc(-c2nc(NCCNc3ccc([N+](=O)[O-])cn3)nc(-c3ccc(C#N)cc3)c2C(=O)O)cc1` [4,6-bis(4-cyanophenyl)-2-({2-[(5-nitro(2-pyridyl))amino]ethyl}-amino)pyrimidine-5-carboxylic acid], the IC50 is no more than 1 µM.
To `O=C(O)c1c(-c2ccc([N+](=O)[O-])cc2)nc(NCCNc2ccc([N+](=O)[O-])cn2)nc1-c1ccc([N+](=O)[O-])cc1` [4,6-bis(4-nitrophenyl)-2-({2-[(5-nitro(2-pyridyl))amino]ethyl}amino)pyrimidine-5-carboxylic acid] belongs no more than 10 µM; to `N#Cc1cnc(NCCNc2ccc([N+](=O)[O-])cn2)nc1-c1ccc(Cl)cc1Cl` [4-(2,4-dichlorophenyl)-2-({2-[(5-nitro(2-pyridyl))amino]-ethyl}amino)pyrimidine-5-carbonitrile], no more than 10 µM.
To `COc1ccccc1-c1nc(NCCNc2ccc([N+](=O)[O-])cn2)ncc1C(=O)O` [4-(2-methoxyphenyl)-2-({2-[(5-nitro(2-pyridyl))amino]ethyl}amino)pyrimidine-5-carboxylic acid] belongs no more than 10 µM; to `COc1cccc(CCNc2nccc(-c3ccc(C(N)=O)cc3)n2)c1OC` [4-(2-{[2-(2,3-dimethoxyphenyl)ethyl]amino}pyrimidin-4-yl)benzamide], no more than 1 µM.
Under `COc1ccc(OC)c(CCNc2nccc(-c3ccc(C(N)=O)cc3)n2)c1` [4-(2-{[2-(2,5-dimethoxyphenyl)ethyl]amino}pyrimidin-4-yl)benzamide] stands no more than 1 µM; under `COc1ccc(OC)c(CCNc2nccc(-c3ccc(C#N)cc3)n2)c1` [4-(2-{[2-(2,5-dimethoxyphenyl)ethyl]amino}pyrimidin-4-yl)benzene-carbonitrile], no more than 10 µM; under `COc1ccccc1CCNc1nccc(-c2ccc(C(N)=O)cc2)n1` [4-(2-{[2-(2-methoxyphenyl)-ethyl]amino}pyrimidin-4-yl)benzamide], no more than 1 µM.
On to `NC(=O)c1ccc(-c2ccnc(NCCNc3ccccn3)n2)cc1` [4-(2-{[2-(2-pyridylamino)ethyl]-amino}pyrimidin-4-yl)benzamide], for which the IC50 is no more than 1 µM.
As to `N#Cc1ccc(-c2ccnc(NCCNc3ccccn3)n2)cc1` [4-(2-{[2-(2-pyridylamino)ethyl]amino}pyrimidin-4-yl)benzenecarbonitrile], the IC50 was no more than 10 µM.
Under `NC(=O)c1ccc(-c2ccnc(NCCNc3ccc4ccccc4n3)n2)cc1` [4-(2-{[2-(2-quinolylamino)ethyl]amino}pyrimidin-4-yl)benzamide] stands no more than 1 µM.
Take `COc1cccc(CCNc2nccc(-c3ccc(C(N)=O)cc3)n2)c1` [4-(2-{[2-(3-methoxyphenyl)ethyl]amino}pyrimidin-4-yl)-benzamide]: the IC50 is no more than 10 µM.
Take `NC(=O)c1ccc(-c2ccnc(NCCc3ccc(F)cc3)n2)cc1` [4-(2-{[2-(4-fluorophenyl)ethyl]amino}pyrimidin-4-yl)benzamide]: the IC50 was no more than 10 µM.
In the case of `NC(=O)c1ccc(-c2ccnc(NCCc3ccc([N+](=O)[O-])cc3)n2)cc1` [4-(2-{[2-(4-nitrophenyl)ethyl]amino}pyrimidin-4-yl)benzamide], the IC50 is no more than 10 µM.
As to `NC(=O)c1ccc(-c2ccnc(NCCNc3ncccn3)n2)cc1` [4-(2-{[2-(pyrimidin-2-ylamino)ethyl]amino}pyrimidin-4-yl)benzamide], the IC50 is no more than 1 µM.
On to `NC(=O)c1ccc(-c2ccnc(NCCCOc3ccc(Cl)cc3Cl)n2)cc1` [4-(2-{[3-(2,4-dichlorophenoxy)propyl]amino}pyrimidin-4-yl)benzamide], for which the concentration for half-maximal inhibition (IC50) was no more than 10 µM.
Take `NC(=O)c1ccc(-c2ccnc(NCCCOc3ccc(Cl)c(Cl)c3)n2)cc1` [4-(2-{[3-(3,4-dichlorophenoxy)-propyl]amino}pyrimidin-4-yl)benzamide]: the IC50 was no more than 10 µM.
On to `NC(=O)c1ccc(-c2ccnc(NCCCOc3cccc(Br)c3)n2)cc1` [4-(2-{[3-(3-bromophenoxy)propyl]-amino}pyrimidin-4-yl)benzamide], for which the IC50 was no more than 10 µM.
Under `COc1cccc(OCCCNc2nccc(-c3ccc(C(N)=O)cc3)n2)c1` [4-(2-{[3-(3-methoxyphenoxy)propyl]-amino}pyrimidin-4-yl)benzamide] stands no more than 10 µM.
With `Cc1cccc(OCCCNc2nccc(-c3ccc(C(N)=O)cc3)n2)c1` [4-(2-{[3-(3-methylphenoxy)propyl]amino}pyrimidin-4-yl)benzamide], the IC50 is no more than 10 µM.
To `NC(=O)c1ccc(-c2ccnc(NCCCOc3cccc(-c4ccccc4)c3)n2)cc1` [4-(2-{[3-(3-phenylphenoxy)propyl]-amino}pyrimidin-4-yl)benzamide] belongs no more than 10 µM; to `NC(=O)c1ccc(-c2ccnc(NCCCc3nc(Cl)c(Cl)[nH]3)n2)cc1` [4-(2-{[3-(4,5-dichloroimidazolyl)propyl]amino}pyrimidin-4-yl)benzamide], no more than 1 µM; to `Oc1ccc(-c2ccnc(NCCCc3nc(Cl)c(Cl)[nH]3)n2)cc1` [4-(2-{[3-(4,5-dichloroimidazolyl)propyl]amino}pyrimidin-4-yl)phenol], no more than 1 µM.
Under `NC(=O)c1ccc(-c2ccnc(NCCCOc3ccc(Cl)cc3)n2)cc1` [4-(2-{[3-(4-chlorophenoxy)propyl]amino}pyrimidin-4-yl)benzamide] stands no more than 10 µM; under `Oc1ccc(-c2ccnc(NCCCOc3ccc(Cl)cc3)n2)cc1` [4-(2-{[3-(4-chlorophenoxy)propyl]amino}pyrimidin-4-yl)phenol], no more than 10 µM; under `COc1ccc(OCCCNc2nccc(-c3ccc(C(N)=O)cc3)n2)cc1` [4-(2-{[3-(4-methoxyphenoxy)propyl]-amino}pyrimidin-4-yl)benzamide], no more than 1 µM.
In the case of `NC(=O)c1ccc(-c2ccnc(NCc3ccc(Cl)cc3Cl)n2)cc1` [4-(2-{[(2,4-dichlorophenyl)methyl]-amino}pyrimidin-4-yl)benzamide], the IC50 was no more than 10 µM.
Turning to `COc1cccc(OC)c1CNc1nccc(-c2ccc(C(N)=O)cc2)n1` [4-(2-{[(2,6-dimethoxyphenyl)-methyl]amino}pyrimidin-4-yl)benzamide], the IC50 was no more than 10 µM.
On to `COc1cc(CNc2nccc(-c3ccc(C(N)=O)cc3)n2)cc(OC)c1OC` [4-(2-{[(3,4,5-trimethoxyphenyl)methyl]amino}pyrimidin-4-yl)benzamide], for which the IC50 was no more than 10 µM.
Consider `COc1ccc(CNc2nccc(-c3ccc(C(N)=O)cc3)n2)cc1OC` [4-(2-{[(3,4-dimethoxyphenyl)methyl]amino}-pyrimidin-4-yl)benzamide], for which the IC50 was no more than 10 µM.
For `NC(=O)c1ccc(-c2ccnc(NCc3cc(Cl)cc(Cl)c3)n2)cc1` [4-(2-{[(3,5-dichlorophenyl)methyl]amino}pyrimidin-4-yl)benzamide], the IC50 is no more than 10 µM.
In the case of `NC(=O)c1ccc(-c2ccnc(NCc3cccc(Br)c3)n2)cc1` [4-(2-{[(3-bromophenyl)methyl]amino}pyrimidin-4-yl)benzamide], the IC50 was no more than 10 µM.
With `NC(=O)c1ccc(-c2ccnc(NCc3cccc(Cl)c3)n2)cc1` [4-(2-{[(3-chlorophenyl)methyl]amino}pyrimidin-4-yl)benzamide], the IC50 is no more than 10 µM.
Take `COc1cccc(CNc2nccc(-c3ccc(C(N)=O)cc3)n2)c1` [4-(2-{[(3-methoxyphenyl)methyl]-amino}pyrimidin-4-yl)benzamide]: the IC50 was no more than 10 µM.
Regarding `Cc1cccc(CNc2nccc(-c3ccc(C(N)=O)cc3)n2)c1` [4-(2-{[(3-methylphenyl)-methyl]amino}pyrimidin-4-yl)benzamide], the IC50 is no more than 10 µM.
As for `NC(=O)c1ccc(-c2ccnc(NCc3cccc([N+](=O)[O-])c3)n2)cc1` [4-(2-{[(3-nitro-phenyl)methyl]amino}pyrimidin-4-yl)benzamide], the IC50 was no more than 10 µM.
With `CNCc1cccc(-c2cccc(CNc3nccc(-c4ccc(C(N)=O)cc4)n3)c2)c1` [4-(2-{[(3-{3-[(methylamino)methyl]phenyl}-phenyl)methyl]amino}pyrimidin-4-yl)benzamide], the IC50 was no more than 10 µM.
To `NC(=O)c1ccc(-c2ccnc(NCc3ccc(N)cc3)n2)cc1` [4-(2-{[(4-aminophenyl)methyl]amino}-pyrimidin-4-yl)benzamide] belongs no more than 10 µM; to `NC(=O)c1ccc(-c2ccnc(NCc3ccc(Br)cc3)n2)cc1` [4-(2-{[(4-bromophenyl)methyl]amino}pyrimidin-4-yl)benzamide], no more than 10 µM.
Under `N#Cc1ccc(CNc2nccc(-c3ccc(C(N)=O)cc3)n2)cc1` [4-(2-{[(4-cyanophenyl)methyl]amino}pyrimidin-4-yl)benzamide] stands no more than 10 µM; under `COc1ccc(CNc2nccc(-c3ccc(C(N)=O)cc3)n2)cc1` [4-(2-{[(4-methoxyphenyl)methyl]amino}pyrimidin-4-yl)benzamide], no more than 10 µM.

In general, IC50 refers to the concentration at which inhibition is half-maximal.
